Values joined by “and” are separate entries in the source; they are usually repeats but may differ in a detail not shown here. Equal entries are not always repeated. Where two headings read alike, the source gives them in different places.
Key:
[1] = Pharmacokinetic study after i.v. injection in normal and DEN-injured rats; assay type: in vivo, Sprague Dawley rats; settings: i.v. 2.5 mg/kg, two-compartment model; for AUC / C0 / clearance / half-life: male, Sprague Dawley, rat, plasma, iv; for half-life: read-out: t1/2β (converted)
Method: Male Sprague Dawley rats (200–220 g), used for pharmacokinetic (PK) studies, were purchased from Beijing Vital River Laboratory Animal Technology Co., Ltd. (Beijing, China). All animals were housed under standardized condition (12 h light/dark schedule), and they were kept 1 week prior to experiments for acclimation. All animal experiments were carried out in accordance with the National Institutes of Health guide for the care and use of Laboratory animals (NIH Publications No. 8023, revised 1978) and were approved by the Medical and Research Ethics Committee of College of Medicine, Henan University.
For PK studies, the rats were randomly divided into two experimental groups (10 rats for normal rats group and 20 rats for DEN-injured rats group, considering the animal casualties during the modeling process). HCC rat model was established by intraperitoneal administration of 50 mg/kg DEN two times per week ([Fuchs et al., 2014]), and the control group rats were treated with normal saline in the same way. After 14 weeks of administration, three rats were randomly selected and anesthetized by anesthesia cocktail (Ketamine 50 mg/mL, Xylazine 3.3 mg/mL and Acetopromazine 3.3 mg/mL). Then the liver was taken out and photographed to determine whether the animal model was successfully constructed.
Before PK experiment, a cannula was introduced into the jugular vein of the anesthetized rat and administrated carprofen subcutaneously after the surgery. After observation for 24 h, when the activity and excretion of rats were normal, rats were dosed with cinobufotalin at 2.5 mg/kg through jugular vein cannula. Blood samples (200 μL) were withdrawn at each pointed time (5, 10, 15, 30, 45 min, and 1, 1.5, 2, 4, 6, 8, 12, and 24 h) after dosing, and whole blood was transferred into tubes pre-treated with heparin (1000 U/mL). Then an equal volume of saline was injected into rats through jugular vein cannula immediately. The blood samples were immediately centrifuged at 4°C (8000 g, 10 min) to obtain the plasma, and the plasma samples were stored at -80°C until analysis. After sampling at the last time point, all rats were anesthetized immediately. Blood was washed out with ice-cold saline through the hepatic portal vein, and then liver tissues were removed, weighed and stored at -80°C until analysis.
Hundred microliter of plasma was transferred to a new clean tube, and samples were treated with protein precipitation assay as described in Preparation of rat plasma samples section. Then calibration curve was prepared to quantify the amount of cinobufotalin in plasma samples according to the steps as described in method validation part.
PK and statistical data analyses were performed using WinNonlin 3.3. The two-compartment model (two-compartment i.v.-Bolus, macro-constants, no lag time, first order elimination, Figure 2) was selected to obtain the PK parameters of cinobufotalin in rats. The model equation was as followed:
(3) C(t)=A∗EXP(−Alpha∗t)+B∗EXP(−Beta∗t)

[2] = Bidirectional transport across MDCK II cell monolayers; assay type: in vitro ADME, canine; settings: dog; for efflux ratio at 120 min, 20 μM: read-out: ER
Method: MDCK II and MDCK-MDR1 cells were seeded into 12-well Transwell polycarbonate membrane inserts (12 mm diameter inserts, 0.4 μm pore size, Corning Costar) at a density of 6 × 10^5 cells/well. Cells were cultured at 37°C under 5% CO2 in DMEM with 10% FBS, and the culture medium was refreshed every other day. Experiments were conducted when the tight junctional cell monolayer formed. First, the cells were washed three times using 37°C preheated HBSS buffer (pH = 7.4) and preincubated in a shaking incubator for 30 min at 37°C. Then the transport studies were initiated after the blank HBSS buffer and dosing solution (HBSS buffer containing cinobufotalin at a final concentration of 20 μM) were added to the receiver compartment and donor compartment, respectively. Verapamil, if used, was added to both compartment during the incubated period. The volumes of the apical side (AP) and basolateral side (BL) were 0.5 and 1.5 mL, respectively. Samples (100 μL) were taken from the receiver compartment every 30 min during the incubation period of 120 min, and then replaced with the same volume of […]. At the end of the incubated period, aliquots of 100 μL were withdrawn from the donor compartment to calculated mass balance. All samples were mixed with 50 μL acetonitrile and centrifuged at 4°C (12,000 g, 10 min. The supernatant was subjected to UPLC-QTOF/MS for analyses.
The apparent permeability (cm/s) from apical-to-basal (Papp,AP-BL) and basal-to-apical (Papp,BL-AP) were calculated according to the following Equation (4), where dQ/dt is the rate of drug permeation (nmol/s), A is the area of polycarbonate membrane (A = 1.12 cm^2), and C0 is the initial concentration of cinobufotalin in the donor compartment.
The efflux ratio (ER) and net flux ratio were calculated according to Equations (5) and (6) as described in our previous research ([Sun et al., 2017]).
(5) ER=Papp, BL−AP/Papp, AP−BL

[3] = pH 7.4, with verapamil (concentration not stated), in both compartments, cinobufotalin 20 μM, with verapamil

## CC(=O)O[C@H]1[C@H]2O[C@]23[C@@H]2CC[C@]4(O)C[C@@H](O)CC[C@]4(C)[C@H]2CC[C@]3(C)[C@H]1c1ccc(=O)oc1 [Cinobufotalin]
[1]; DEN-injured rats
  CL2: 135 ± 28.3 mL/min/kg
  K10: 1.0 ± 0.3^* 1/h
  K21: 0.3 ± 0.1 h⁻¹
  V: 2.4 ± 0.6 L/kg
  V2: 31.5 ± 10.4 L/kg
[1]; DEN-injured rats, 2.5 mg/kg
  K12: 3.2 ± 0.8 h⁻¹
  t1/2α: 0.2 ± 0.1 h
[1]; 2.5 mg/kg, DEN-injured rats
  AUC: 1100 ± 300 ng·h/mL
  C0: 1100 ± 300 ng/mL
  clearance: 40 mL/min/kg
  half-life: 13.4 ± 5.8 h
[1]; 2.5 mg/kg, normal rats
  AUC: 2600 ± 500 ng·h/mL
  C0: 1400 ± 400 ng/mL
  clearance: 16.7 mL/min/kg
  half-life: 13.2 ± 1.3 h
[1]; normal rats
  CL2: 55 ± 6.7 mL/min/kg
  K10: 0.5 ± 0.2 h⁻¹
  K21: 0.3 ± 0 h⁻¹
  V: 2.1 ± 0.6 L/kg
  V2: 13.1 ± 1.3 L/kg
  t1/2α: 0.3 ± 0.1 h
[1]; normal rats, 2.5 mg/kg
  K12: 1.8 ± 0.5 h⁻¹ and 1.8 ± 0.8 h⁻¹
[2]; pH 7.4, cinobufotalin 20 μM
  Papp A→B at 120 min, 20 μM: 33.8 ± 1.1 ×10⁻⁶ cm/s
  Papp B→A at 120 min, 20 μM: 35.9 ± 1.3 ×10⁻⁶ cm/s
  efflux ratio at 120 min, 20 μM: 1.1
[2]; [3]
  Papp A→B at 120 min, 20 μM: 23.4 ± 2.2 ×10⁻⁶ cm/s
  Papp B→A at 120 min, 20 μM: 24.8 ± 2.7 ×10⁻⁶ cm/s
  efflux ratio at 120 min, 20 μM: 1.1

From publication PMC6533572, “Elucidation of the Differences in Cinobufotalin’s Pharmacokinetics Between Normal and Diethylnitrosamine-Injured Rats: The Role of P-Glycoprotein” (Frontiers in Pharmacology, 2019)
